Data: patent publication US20240398784A1, “C-LINKED ISOQUINOLINE AMIDES AS LRRK2 INHIBITORS, PHARMACEUTICAL COMPOSITIONS, AND USES THEREOF” (Merck Sharp & Dohme LLC, priority 2021, published 2024)

Biological target: LRRK2 G2019S (Homo sapiens, UniProt Q5S007, G2019S)
Assay: LRRK2 G2019S Km ATP LanthaScreen assay
Assay type: biochemical
Details: not given

Sequence of LRRK2 G2019S (Q5S007 whole entry G2019S): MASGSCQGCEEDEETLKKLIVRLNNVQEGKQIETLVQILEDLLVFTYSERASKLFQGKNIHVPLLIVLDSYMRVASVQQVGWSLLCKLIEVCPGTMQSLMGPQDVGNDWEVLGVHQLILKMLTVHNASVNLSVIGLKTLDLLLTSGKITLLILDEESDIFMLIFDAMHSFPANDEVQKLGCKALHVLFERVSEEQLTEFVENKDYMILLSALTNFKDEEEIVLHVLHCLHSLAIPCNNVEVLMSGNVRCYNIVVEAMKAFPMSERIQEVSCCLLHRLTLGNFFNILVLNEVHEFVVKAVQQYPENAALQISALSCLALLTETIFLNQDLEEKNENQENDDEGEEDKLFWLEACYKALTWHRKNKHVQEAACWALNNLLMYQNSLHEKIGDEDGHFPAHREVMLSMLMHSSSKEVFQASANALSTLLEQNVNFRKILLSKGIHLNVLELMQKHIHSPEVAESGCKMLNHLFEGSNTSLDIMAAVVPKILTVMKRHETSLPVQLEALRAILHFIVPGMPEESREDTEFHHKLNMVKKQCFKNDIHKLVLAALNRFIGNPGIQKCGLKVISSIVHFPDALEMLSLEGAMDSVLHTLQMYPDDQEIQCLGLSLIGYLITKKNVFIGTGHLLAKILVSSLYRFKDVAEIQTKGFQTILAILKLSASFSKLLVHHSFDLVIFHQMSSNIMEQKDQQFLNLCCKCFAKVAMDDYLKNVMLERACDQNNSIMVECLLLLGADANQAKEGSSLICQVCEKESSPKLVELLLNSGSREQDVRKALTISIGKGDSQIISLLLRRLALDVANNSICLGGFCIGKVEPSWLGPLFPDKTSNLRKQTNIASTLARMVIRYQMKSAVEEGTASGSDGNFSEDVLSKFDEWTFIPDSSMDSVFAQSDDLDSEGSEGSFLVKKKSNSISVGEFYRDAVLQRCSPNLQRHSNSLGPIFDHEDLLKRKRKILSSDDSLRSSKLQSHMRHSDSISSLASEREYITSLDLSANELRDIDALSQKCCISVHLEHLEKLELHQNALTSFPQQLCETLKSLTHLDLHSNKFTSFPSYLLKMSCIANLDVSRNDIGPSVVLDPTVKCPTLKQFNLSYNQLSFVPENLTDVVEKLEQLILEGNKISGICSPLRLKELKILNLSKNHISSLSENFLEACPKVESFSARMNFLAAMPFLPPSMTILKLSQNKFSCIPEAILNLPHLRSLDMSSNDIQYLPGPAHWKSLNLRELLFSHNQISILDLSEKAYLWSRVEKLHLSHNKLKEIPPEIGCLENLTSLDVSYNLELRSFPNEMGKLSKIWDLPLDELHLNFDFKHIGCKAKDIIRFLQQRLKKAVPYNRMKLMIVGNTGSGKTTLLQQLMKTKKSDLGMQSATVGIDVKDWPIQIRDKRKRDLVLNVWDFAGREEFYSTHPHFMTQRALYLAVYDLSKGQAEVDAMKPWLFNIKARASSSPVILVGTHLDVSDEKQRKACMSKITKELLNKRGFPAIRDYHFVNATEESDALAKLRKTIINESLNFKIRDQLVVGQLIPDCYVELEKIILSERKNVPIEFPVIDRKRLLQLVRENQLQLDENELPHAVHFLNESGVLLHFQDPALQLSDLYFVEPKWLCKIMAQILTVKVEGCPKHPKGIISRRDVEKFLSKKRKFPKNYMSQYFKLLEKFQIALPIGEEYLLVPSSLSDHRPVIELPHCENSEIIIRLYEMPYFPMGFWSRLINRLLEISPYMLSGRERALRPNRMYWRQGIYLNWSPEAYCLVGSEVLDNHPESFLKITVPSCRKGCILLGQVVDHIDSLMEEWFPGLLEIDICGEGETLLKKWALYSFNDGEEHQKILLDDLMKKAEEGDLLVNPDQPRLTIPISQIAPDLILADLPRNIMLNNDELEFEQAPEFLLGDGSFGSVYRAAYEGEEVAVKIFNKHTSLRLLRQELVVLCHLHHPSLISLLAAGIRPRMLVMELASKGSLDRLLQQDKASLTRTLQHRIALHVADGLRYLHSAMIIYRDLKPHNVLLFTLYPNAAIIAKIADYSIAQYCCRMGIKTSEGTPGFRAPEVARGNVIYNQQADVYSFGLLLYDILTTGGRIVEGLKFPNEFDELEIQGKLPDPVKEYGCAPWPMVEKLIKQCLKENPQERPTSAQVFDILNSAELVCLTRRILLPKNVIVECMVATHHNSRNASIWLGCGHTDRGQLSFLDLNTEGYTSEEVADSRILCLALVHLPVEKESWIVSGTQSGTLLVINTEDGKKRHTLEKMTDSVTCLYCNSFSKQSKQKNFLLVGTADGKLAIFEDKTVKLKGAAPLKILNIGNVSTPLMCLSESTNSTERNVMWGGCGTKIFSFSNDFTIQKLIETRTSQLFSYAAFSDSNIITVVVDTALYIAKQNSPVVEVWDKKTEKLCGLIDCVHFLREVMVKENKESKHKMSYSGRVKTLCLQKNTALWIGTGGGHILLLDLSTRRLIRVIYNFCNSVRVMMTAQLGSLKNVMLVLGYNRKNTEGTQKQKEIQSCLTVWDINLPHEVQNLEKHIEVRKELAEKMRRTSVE

Row | LRRK2 pIC50 | Structure (SMILES)
1 | 10.09 | Cn1ncc(C2CC2C(=O)Nc2cc3cc(C4CCN(C5(C)COCC5O)CC4)c(Cl)cc3cn2)n1 [Ex-20.1, (1R,2R and 1S,2S)-N-(7-chloro-6-(1-(4-hydroxy-3-methyltetrahydrofuran-3-yl)piperidin-4-yl)isoquinolin-3-yl)-2-(2-methyl-2H-1,2,3-triazol-4-yl)cyclopropane-1-carboxamide]

Same assay, conditions: read-out: LRRK2 pIC50 (converted)

Row | Structure (SMILES) | IC50
2 | COC1COCC1(C)N1CCC(c2cc3cc(NC(=O)C4CC45CCOCC5)ncc3cc2Cl)CC1 (single isomer, unassigned) [Ex-6.23, N-(7-chloro-6-(1-(4-methoxy-3-methyltetrahydrofuran-3-yl)piperidin-4-yl)isoquinolin-3-yl)-6-oxaspiro[2.5]octane-1-carboxamide] | 0.00182 µM
3 | Cc1cc2cnc(NC(=O)C3CC3c3ccccn3)cc2cc1C1CCN(C2(C)COCC2F)CC1 (single isomer, unassigned) [Ex-13.2, (1R,2R or 1S,2S)-N-(6-(1-((3R,4R or 3S,4S)-4-fluoro-3-methyltetrahydrofuran-3-yl)piperidin-4-yl)-7-methylisoquinolin-3-yl)-2-(pyridin-2-yl)cyclopropane-1-carboxamide] | 0.0389 µM
4 | Cc1cc2cnc(NC(=O)C3CC34CCOCC4)cc2cc1C1CCN(C2(C)COCC2O)CC1 (single isomer, unassigned) [Ex-15.16, N-(6-(1-(4-hydroxy-3-methyltetrahydrofuran-3-yl)piperidin-4-yl)-7-methylisoquinolin-3-yl)-6-oxaspiro[2.5]octane-1-carboxamide] | 8.13e-05 µM
5 | CC1(N2CCC(c3cc4cc(NC(=O)Cc5cccnc5)ncc4cc3Cl)CC2)COCC1O (stereo not drawn) [Ex-3.7] | 8.13e-05 µM
6 | CC1(C)CC(C(=O)Nc2cc3cc(C4CCC(N5CCC(F)C5)CC4)c(Cl)cc3cn2)CCO1 (single isomer, unassigned) [Ex-5.14, N-(7-chloro-6-(4-(3-fluoropyrrolidin-1-yl)cyclohexyl)isoquinolin-3-yl)-2,2-dimethyltetrahydro-2H-pyran-4-carboxamid] | 0.0389 µM
7 | COC1CCC(C(=O)Nc2cc3cc(C4CCN(C5(C)COCC5O)CC4)c(Cl)cc3cn2)CC1 (single isomer, unassigned) [Ex-10.2, 1,4-trans, (3R,4R)- or 1,4-trans, (3S,4S)- or 1,4-cis, (3R,4R)- or 1,4-cis, (3S,4S)-N-(7-chloro-6-(1-(4-hydroxy-3-methyltetrahydrofuran-3-yl)piperidin-4-yl)isoquinolin-3-yl)-4-methoxycyclohexane-1-carboxamide] | 0.0468 µM
8 | CCC(=O)N1CCC(C(C)C(=O)Nc2cc3cc(C4(C#N)CC45CC5)ccc3cn2)CC1 (stereo not drawn) [Ex-2.113] | 0.0282 µM
9 | O=C(Nc1cc2cc(C3CCN(C4COC4)CC3)c(Cl)cc2cn1)C1CC1 [Ex-7.6, N-(7-chloro-6-(1-(oxetan-3-yl)piperidin-4-yl)isoquinolin-3-yl)cyclopropanecarboxamide] | 0.00214 µM
10 | O=C(Nc1cc2cc(C3CCN(C4COC4)CC3)c(Cl)cc2cn1)[C@H]1C[C@H]1F [Ex-1.13, (1R,2R)-N-(7-chloro-6-(1-(oxetan-3-yl)piperidin-4-yl)isoquinolin-3-yl)-2-fluorocyclopropane-1-carboxamide] | 0.00245 µM
11 | Cn1cc(C2CC2C(=O)Nc2cc3cc(C4CCC(N5CC(F)C5)CC4)c(Cl)cc3cn2)cn1 (single isomer, unassigned) [Ex-5.8, N-(7-cchloro-6-(4-(3-fluoroazetidin-1-yl)cyclohexyl)isoquinolin-3-yl)-2-(1-methyl-1H-pyrazol-4-yl)cyclopropane-1-carboxamide] | 0.00871 µM
12 | CC1(N2CCC(c3cc4cc(NC(=O)C5CC56CCOC6)ncc4cc3Cl)CC2)COCC1F (single isomer, unassigned) [Ex-6.3, (R or S)-N-(7-chloro-6-(1-((3R,4R or 3S,4S)-4-fluoro-3-methyltetrahydrofuran-3-yl)piperidin-4-yl)isoquinolin-3-yl)-5-oxaspiro [2.4] heptane-1-carboxamide] | 8.13e-05 µM
13 | C[C@@]1(N2CCC(c3cc4cc(NC(=O)c5ccn(C6CC6)n5)ncc4cc3Cl)CC2)COC[C@@H]1O (single isomer, unassigned) [Ex-1.49, N-(7-chloro-6-(1-((3R,4R or 3S,4S)-4-hydroxy-3-methyltetrahydrofuran-3-yl)piperidin-4-yl)isoquinolin-3-yl)-1-cyclopropyl-1H-pyrazole-3-carboxamide] | 0.0389 µM
14 | O=C(Nc1cc2cc(C3CCN(C4COCC4O)CC3)c(Cl)cc2cn1)C1CC12CCOCC2 (single isomer, unassigned) [Ex-4.2, (R or S)-N-(7-chloro-6-(1-((3R,4R or 3R, 4R)-4-hydroxytetrahydrofuran-3-yl)piperidin-4-yl)isoquinolin-3-yl)-6-oxaspiro[2.5]octane-1-carboxamide] | 0.00282 µM
15 | Cc1cc2cnc(NC(=O)C3CC3C(F)F)cc2cc1C1CCN(C2(C)COCC2O)CC1 (stereo not drawn) [Ex-2.56] | 0.00158 µM

Other lines, results leading:

Row | IC50 | Structure (SMILES)
16 | 0.0661 µM | O=C(Nc1cc2cc(C3CCN(C4COCC4O)CC3)c(Cl)cc2cn1)C1CC1 (single isomer, unassigned) [Ex-12.4, N-(7-chloro-6-(1-(4-hydroxytetrahydrofuran-3-yl)piperidin-4-yl)isoquinolin-3-yl)cyclopropanecarboxamide]
17 | 8.13e-05 µM | CC(C)(O)C1CC1C(=O)Nc1cc2cc(C3CCN(C4(C)COCC4O)CC3)c(Cl)cc2cn1 (stereo not drawn) [Ex-2.21]
18 | 0.00257 µM | CN(C)C1CCC2C(C(=O)Nc3cc4cc(C5CCN(C6(C)COCC6O)CC5)c(Cl)cc4cn3)C21 (single isomer, unassigned) [Ex-4.27, N-(7-chloro-6-(1-(4-hydroxy-3-methyltetrahydrofuran-3-yl)piperidin-4-yl)isoquinolin-3-yl)-2-(dimethylamino)bicyclo[3.1.0]hexane-6-carboxamide]
19 | 0.00129 µM | CC1(C)CC(C(=O)Nc2cc3cc(C4CCC(N5CCC(F)C5)CC4)c(Cl)cc3cn2)CCO1 (single isomer, unassigned) [Ex-5.15, N-(7-chloro-6-(4-(3-fluoropyrrolidin-1-yl)cyclohexyl)isoquinolin-3-yl)-2,2-dimethyltetrahydro-2H-pyran-4-carboxamid]
20 | 0.000355 µM | CC1(C)CC1C(=O)Nc1cc2cc(C3CCN(C4(C)COCC4O)CC3)c(Cl)cc2cn1 (stereo not drawn) [Ex-2.12]
21 | 0.00891 µM | CC1CC1C(=O)Nc1cc2cc(C3CCN(C4COC4)CC3)c(Cl)cc2cn1 (single isomer, unassigned) [Ex-9.6, N-(7-chloro-6-(1-(oxetan-3-yl)piperidin-4-yl)isoquinolin-3-yl)-2-methylcyclopropane-1-carboxamide]
22 | 0.0214 µM | Cc1cc2cnc(NC(=O)C3CC3C(C)(C)F)cc2cc1C1CCN(C2(C)COCC2O)CC1 (single isomer, unassigned) [Ex-15.5, 2-(2-fluoropropan-2-yl)-N-(6-(1-(4-hydroxy-3-methyltetrahydrofuran-3-yl)piperidin-4-yl)-7-methylisoquinolin-3-yl)cyclopropane-1-carboxamide]
23 | 0.00339 µM | CC(C)(O)C1CC(C(=O)Nc2cc3cc(C4(C#N)CC45CC5)ccc3cn2)C1 (single isomer, unassigned) [Ex-1.26, (1R,3R or 1S,3S)-N-(6-((R or S)-1-cyanospiro[2.2]pentan-1-yl)isoquinolin-3-yl)-3-(2-hydroxypropan-2-yl)cyclobutane-1-carboxamide]
24 | 8.13e-05 µM | Cc1cc2cnc(NC(=O)C3CC34CC4)cc2cc1C1CCN(C2(C)COCC2O)CC1 (single isomer, unassigned) [Ex-16.13, N-(6-(1-(4-hydroxy-3-methyltetrahydrofuran-3-yl)piperidin-4-yl)-7-methylisoquinolin-3-yl)spiro[2.2]pentane-1-carboxamide]
25 | 0.0724 µM | CC(C)Cn1nccc1C1CC1C(=O)Nc1cc2cc(C3CCN(C4(C)COCC4O)CC3)c(Cl)cc2cn1 (single isomer, unassigned) [Ex-4.61, N-(7-chloro-6-(1-(4-hydroxy-3-methyltetrahydrofuran-3-yl)piperidin-4-yl)isoquinolin-3-yl)-2-(1-isobutyl-1H-pyrazol-5-yl)cyclopropane-1-carboxamide]
26 | 0.00457 µM | CC1(N2CCC(c3cc4cc(NC(=O)C5CC56CCOCC6)ncc4cc3Cl)CC2)CCOC1 (stereo not drawn) [Ex-2.22]
27 | 0.00324 µM | Cc1cc2cnc(NC(=O)C3CC3)cc2cc1C1CCN(C2(C)COC2)CC1 [Ex-15.1]
28 | 0.316 µM | Cn1cc(C(=O)Nc2cc3cc(C4CCN([C@]5(C)COC[C@@H]5O)CC4)c(Cl)cc3cn2)cn1 (single isomer, unassigned) [Ex-12.8, N-(7-chloro-6-(1-(4-hydroxy-3-methyltetrahydrofuran-3-yl)piperidin-4-yl)isoquinolin-3-yl)-1-methyl-1H-pyrazole-4-carboxamide]
29 | 8.13e-05 µM | CC1(N2CCC(c3cc4cc(NC(=O)C5CC56CC6)ncc4cc3Cl)CC2)COCC1O (single isomer, unassigned) [Ex-4.5, N-(7-chloro-6-(1-(4-hydroxy-3-methyltetrahydrofuran-3-yl)piperidin-4-yl)isoquinolin-3-yl)spiro[2.2]pentane-1-carboxamide]
30 | 81300 µM | CC(C)Cn1nccc1C1CC1C(=O)Nc1cc2cc(C3CCN(C4(C)COCC4O)CC3)c(Cl)cc2cn1 (single isomer, unassigned) [Ex-4.62, N-(7-chloro-6-(1-(4-hydroxy-3-methyltetrahydrofuran-3-yl)piperidin-4-yl)isoquinolin-3-yl)-2-(1-isobutyl-1H-pyrazol-5-yl)cyclopropane-1-carboxamide]
31 | 8.13e-05 µM | CC1(N2CCC(c3cc4cc(NC(=O)C5CCC5C#N)ncc4cc3Cl)CC2)COCC1F (stereo not drawn) [Ex-2.94]
32 | 0.0219 µM | Cn1cc(C(=O)Nc2cc3cc(C4CCN([C@]5(C)COC[C@@H]5O)CC4)c(Cl)cc3cn2)cn1 (single isomer, unassigned) [Ex-12.7, N-(7-chloro-6-(1-(4-hydroxy-3-methyltetrahydrofuran-3-yl)piperidin-4-yl)isoquinolin-3-yl)-1-methyl-1H-pyrazole-4-carboxamide]
33 | 0.0832 µM | CC1C(C(=O)Nc2cc3cc(C4CCN(C5(C)COCC5O)CC4)c(Cl)cc3cn2)C1c1ccccn1 (single isomer, unassigned) [Ex-4.51, N-(7-chloro-6-(1-(4-hydroxy-3-methyltetrahydrofuran-3-yl)piperidin-4-yl)isoquinolin-3-yl)-2-methyl-3-(pyridin-2-yl)cyclopropane-1-carboxamide]
